Assay results from paper PMC3530532, “Corticosteroid-Binding Globulin: Structure-Function Implications from Species Differences” (PLoS ONE, 2012).

How the values were obtained:
Rat CBG-WT = molecular target: T1, Rat CBG-WT (Rattus norvegicus, UniProt P31211); assay: Isothermal titration calorimetry, steroid titrated to rat CBG-WT; format: binding; conditions: ITC, 25°C
T1 construct: residues 5 to 374 of rat CBG (P31211); GST (N, cleaved yes); made in house; host or cells: E. coli BL21 Star (DE3)
T1 sequence (P31211 27-396): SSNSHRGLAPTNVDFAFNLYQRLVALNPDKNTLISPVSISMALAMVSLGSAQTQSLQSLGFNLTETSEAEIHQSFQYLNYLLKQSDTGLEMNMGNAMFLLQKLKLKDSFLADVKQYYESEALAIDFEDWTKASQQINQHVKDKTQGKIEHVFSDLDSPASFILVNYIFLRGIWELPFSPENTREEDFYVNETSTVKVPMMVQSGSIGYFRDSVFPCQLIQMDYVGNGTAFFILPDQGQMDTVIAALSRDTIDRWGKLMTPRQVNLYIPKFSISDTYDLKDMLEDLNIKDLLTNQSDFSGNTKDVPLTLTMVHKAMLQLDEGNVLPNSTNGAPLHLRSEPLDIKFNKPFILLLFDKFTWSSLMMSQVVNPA
Method: (§1) The coding sequences of residues 11 to 383 of human CBG (Swiss-Prot entry P08185) and residues 5 to 374 of rat CBG (P31211) were cloned into a pGEX-2T vector (GE Healthcare, Uppsala), yielding N-terminal glutathione-S-transferase (GST) fusion proteins. Mutations were introduced using a two-stage PCR procedure based on the QuikChange (Stratagene, Santa Clara) site-directed mutagenesis protocol. All experiments with human CBG were conducted with a mutant in which surface residue Lys126 was replaced by alanine in order to facilitate crystallization. Wild-type rat CBG (rat CBG-WT) and rat CBG mutants CBG-RCL1, CBG-RCL2 and CBG-RCL3 were produced to probe the function of the RCL residues in rat CBG. All gene constructs were confirmed by DNA sequencing prior to protein production.
(§2) The GST-tagged human and rat CBG variants were produced in E. coli BL21 Star™ (DE3) cells (Invitrogen, Carlsbad) using the ZYM-5052 auto-inducing medium. For each variant, 10 L of ZYM-5052 medium containing 100 µg/mL ampicillin were inoculated with an overnight culture of a single clone. The flasks were incubated at 37°C until the optical density at 600 nm reached 0.3. The temperature was then lowered to 20°C, and the cells were allowed to grow for an additional 20 h. The pellet was resuspended in PBS buffer (pH 7.4) containing 5 mM EDTA after cell harvesting (4 mL of buffer per gram of pellet).
(§3) The protein samples were dialyzed against ITC buffer (20 mM potassium phosphate, 50 mM NaCl, pH 7.4) and titrated with steroids in a VP-ITC microcalorimeter (Microcal, Piscataway). All solutions were filtered (0.2 µm filter pore size) and degassed for 30 min prior to the titration experiments. The sample cell was filled with protein solution containing 15 µM rat CBG or 20 µM human CBG and titrated with steroid solutions containing 150 µM and 200 µM ligand, respectively. The titrations consisted of an initial injection of 2 µL followed by 25 consecutive injections of 10 µL ligand solution at 25°C. A spacing of 240 sec between the injections was used to allow a return to the baseline. Data points from the initial injection, which are generally affected by diffusion during the initial equilibration period after experiment setup, were discarded prior to data analysis. […] The binding curve was generated by plotting the heats of injections against the ratio of ligand to protein in the cell. Integrated heat data were analyzed using nonlinear regression fit with a one-site-binding model in the Origin-7™ software provided with the VP-ITC. Changes in the free energy and entropy can be calculated using the equation: ΔG° = −RTlnK = ΔH°−TΔS°. In this equation ΔG° is the change in Gibbs free energy, R the universal gas constant, T the temperature, and K the association constant. The change in enthalpy is denoted as ΔH°, and ΔS° is the change in entropy under standard conditions. The data shown in Table 2 were obtained from single titrations of each complex.

Human CBG-WT = molecular target: T2, Human CBG-WT (Homo sapiens, UniProt P08185, K148A); assay: Isothermal titration calorimetry, steroid titrated to uncleaved human CBG-WT; format: binding; conditions: ITC, 25°C
T2 construct: residues 11 to 383 of human CBG (Swiss-Prot entry P08185); GST (N, cleaved yes); made in house; host or cells: E. coli BL21 Star (DE3)
T2 sequence (P08185 33-405 K148A): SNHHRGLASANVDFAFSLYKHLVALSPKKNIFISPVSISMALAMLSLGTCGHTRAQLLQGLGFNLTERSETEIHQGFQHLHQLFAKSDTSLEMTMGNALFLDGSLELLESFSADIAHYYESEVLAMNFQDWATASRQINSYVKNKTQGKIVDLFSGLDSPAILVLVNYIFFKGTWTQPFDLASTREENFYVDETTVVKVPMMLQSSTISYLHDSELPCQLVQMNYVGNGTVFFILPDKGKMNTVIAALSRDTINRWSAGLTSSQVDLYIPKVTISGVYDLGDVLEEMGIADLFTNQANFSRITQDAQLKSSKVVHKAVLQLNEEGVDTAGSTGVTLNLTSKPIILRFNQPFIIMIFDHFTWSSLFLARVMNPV
Method: as §1, §2
as §3, with “The change in enthalpy is denoted as ΔH°, and ΔS° is the change in entropy under standard conditions. The data shown in Table 2 were obtained from single titrations of each complex.” left out

C[C@]12CCC(=O)C=C1CC[C@@H]1[C@@H]2[C@@H](O)C[C@@]2(C)[C@H]1CC[C@]2(O)C(=O)CO [Hydrocortisone]
TΔS° (Rat CBG-WT; rat CBG-WT): -20.3 kcal/mol
ΔG° (Rat CBG-WT; rat CBG-WT): -9.44 kcal/mol
ΔH° (Rat CBG-WT; rat CBG-WT): -29.78 kcal/mol
Kd (Rat CBG-WT; single titration, uncleaved rat CBG-WT): 122 ± 6 nM
Kd (Human CBG-WT; single titration, uncleaved human CBG-WT (K126A, E. coli produced)): 45 ± 7 nM
TΔS° (Human CBG-WT; uncleaved human CBG-WT): -26.08 kcal/mol
ΔG° (Human CBG-WT; uncleaved human CBG-WT): -10.1 kcal/mol
ΔH° (Human CBG-WT; uncleaved human CBG-WT): -36.14 kcal/mol
